Read-outs that look alike come from different tables or passages of the source.
Biological target: human σ1 receptor (Homo sapiens (Human), UniProt Q99720)
Assay: Human σ1 receptor radioligand assay
Format: binding
Protocol: Human σ1 Receptor Radioligand Assay
To investigate binding properties of test compounds to human σ1 receptor, transfected HEK-293 membranes and [^3H](+)-pentazocine (Perkin Elmer, NET-1056), as the radioligand, were used. The assay was carried out with 7 μg of membrane suspension, 5 nM of [^3H](+)-pentazocine in either absence or presence of either buffer or 10 μM Haloperidol for total and non-specific binding, respectively. Binding buffer contained Tris-HCl 50 mM at pH 8. Plates were incubated at 37° C. for 120 minutes. After the incubation period, the reaction mix was then transferred to Multiscreen HTS, FC plates (Millipore), filtered and plates were washed 3 times with ice-cold 10 mM Tris-HCL (pH7.4). Filters were dried and counted at approximately 40% efficiency in a MicroBeta scintillation counter (Perkin-Elmer) using EcoScint liquid scintillation cocktail

human σ1 receptor, sequence (Q99720 whole entry): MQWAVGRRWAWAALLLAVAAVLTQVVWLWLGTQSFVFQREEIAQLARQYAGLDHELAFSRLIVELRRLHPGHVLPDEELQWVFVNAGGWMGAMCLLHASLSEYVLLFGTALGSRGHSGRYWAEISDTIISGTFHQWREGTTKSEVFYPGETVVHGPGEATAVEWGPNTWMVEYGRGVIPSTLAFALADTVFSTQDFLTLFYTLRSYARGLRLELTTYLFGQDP

Compound `CCN1CC(C)OC2(CCN(CCc3ccccc3)CC2)C1` (centres unmarked) [Example 112, 4-Ethyl-2-methyl-9-phenethyl-1-oxa-4,9-diazaspiro[5.5]undecane] has a Ki ([3H](+)-pentazocine radioligand, transfected HEK-293 membranes, read-out: Ki-σ1) of under 0.1 µM.

Work on `CCN1CC2(CCN(CCC(C)(C)C)CC2)O[C@@H](C)C1=O` [Example 52, (S)-9-(3,3-dimethylbutyl)-4-ethyl-2-methyl-1-oxa-4,9-diazaspiro[5.5]undecan-3-one] yielded a Ki of 0.1 to 0.5 µM.
